In brackets after ≈: the same amount, converted by molar mass. Like-named read-outs stand apart in the source and are kept apart here. Numbered stars: 1 amine (or outer) side, 2 acyl side, 3 side chain; on linkers, the order of the positions; unused ones are H or OH. Square brackets hold non-standard residues; d marks the D form. Peptide text beside a SMILES is read from it. X35 = CN([C@@H](Cc1cccc(-c2ccc(-n3c4ccccc4c4ccccc43)cc2)c1)C(=O)[*:2])[*:1]; X27 = CN([C@@H](Cc1cccc(-c2cccc3ccccc23)c1)C(=O)[*:2])[*:1]; X32 = CN([C@@H](Cc1cccc(-c2cccc(F)c2)c1)C(=O)[*:2])[*:1]; Hmp(2R,3S) = CC[C@H](C)[C@@H](O)C(=O)O; NMeVal(β-OH) = CN[C@H](C(=O)O)C(C)(C)O; NMeV = CN[C@H](C(=O)O)C(C)C
Assays:
[1] = test system: A. fumigatus MMX 5280 ATCC MYA-3626; experiment: MIC/MEC assay (CLSI microdilution); type: cell-based, Aspergillus fumigatus; conditions: Aspergillus fumigatus, 48 h
Procedure: (§1) Aureobasidin and test compounds (i.e., AbA derivatives of the present invention) were received from Kalexsyn, Inc. (Kalamazoo, Mich.) as powder and were stored at 4° C. until the day of assay. […] amphotericin was obtained from Sigma Aldrich and stored under like conditions. […] Ethanol (95%) was used as a solvent and diluent for all AbA compounds. Amphotericin B was tested from 0.06-64 μg/mL. Amphotericin B (Sigma Aldrich; St. Louis, Mo.; Cat No. A9528-100MG, Lot No. 120M4087) was dissolved and diluted with dimethylsulfoxide (DMSO; Sigma Aldrich; St. Louis, Mo.; Cat No. 472301 Lot No. SHBD2072V).
(§2) The solvents were added to the test agents and the stock solutions stood for approximately 1 hr at room temperature prior to use to auto sterilize. Stock solutions were prepared at 40× the desired top concentration in the test plate.
(§3) All of the test isolates were originally received from either the American Type Culture Collection (ATCC), clinical labs, or directly from Aureogen Biosciences. Organisms stored by Micromyx were cultured on agar medium appropriate to each organism. Colonies were picked by swab from the isolation plates and put into suspension in appropriate broth containing cryoprotectant. The suspensions were aliquoted into cryogenic vials and maintained at −80° C.
(§4) Prior to testing, Candida isolates were streaked from the frozen vials on Sabouraud dextrose agar. The yeast isolates were incubated for 48 hours at 35° C. before use. The fungal isolates were obtained from enumerated fungal stocks previously prepared at Micromyx and stored in phosphate buffered saline at 4° C.
(§5) Test Media. The medium employed for the MIC assay was RPMI-1640 medium from HyClone Laboratories (Logan, Utah; Lot No. AYB60287A). The medium was prepared according to Clinical and Laboratory Standards Institute (CLSI) guidelines (1, 2), and modified to include 0.002% Tween-80. Candida parapsilosis ATCC 22019 (MMX 2323) and Aspergillus fumigatus ATCC MYA-3626 (MMX 5280) were also tested without Tween-80 to provide data for the quality control of amphotericin B in accordance with CLSI (3) and to assess the effect of Tween-80 on the activity of the test agents.
(§6) Test Procedure. The MIC assay method followed the procedure described by CLSI (1, 2) and employed automated liquid handlers to conduct serial dilutions and liquid transfers. Automated liquid handlers included the Multidrop 384 (Labsystems, Helsinki, Finland), Biomek 2000 and Biomek FX (Beckman Coulter, Fullerton Calif.). The wells in columns 2-12 in standard 96-well microdilution plates (Costar 3795) were filled with 150 μl of the appropriate diluent (95% EtOH for investigational compounds, 100% DMSO for amphotericin B). These assay plates would become the ‘mother plates’ from which the assay ‘daughter plates’ would be prepared. The drugs (300 μL at 40× the desired top concentration in the test plates) were dispensed into the appropriate well in Column 1 of the mother plates. The Biomek 2000 was used to make two-fold serial dilutions through Column 11 in the “mother plate”. The wells of Column 12 contained no drug and served as the organism growth control wells.
(§7) The daughter plates were loaded with 185 μL per well on the Multidrop 384 with RPMI plus 0.002% Tween-80 or RPMI containing no Tween-80 for the testing of the two QC isolates. The daughter plates were prepared on the Biomek FX instrument which transferred 5 μL of drug solution from each well of a mother plate to each corresponding well of each daughter plate in a single step.
(§8) A standardized inoculum of each organism was prepared per CLSI methods (1, 2). For the Candida isolates, colonies were picked from the streak plate and a suspension was prepared in RPMI to equal a 0.5 McFarland standard. This suspension was diluted 1:100 in RPMI resulting in a final concentration of approximately 0.5-2.5×10^3 CFU/mL. […]

[2] = test system: A. fumigatus MMX 6781 ATCC MYA-4609; experiment: MIC/MEC assay (CLSI microdilution); type: cell-based; conditions: Aspergillus fumigatus; for MIC: 48 h, RPMI plus 0.002% Tween-80, read-out: MIC; for minimal effective concentration: RPMI plus 0.002% Tween-80, 48 hr
Procedure: as §1, §2, §3, §4, §5, §6, §7, §8

[3] = test system: A. fumigatus MMX 6782 ATCC 13073; experiment: MIC/MEC assay (CLSI microdilution); type: cell-based; conditions: Aspergillus fumigatus, ATCC13073, 48 h; for minimal effective concentration: RPMI plus 0.002% Tween-80, read-out: MEC; for MIC: RPMI plus 0.002% Tween-80, read-out: MIC
Procedure: as §1, §2, §3, §4, §5, §6, §7, §8

[4] = test system: A. flavus MMX 5948; experiment: MIC/MEC assay (CLSI microdilution); type: cell-based; conditions: Aspergillus flavus, MMX5948, 48 h; for minimal effective concentration: RPMI plus 0.002% Tween-80; for MIC: RPMI plus 0.002% Tween-80, read-out: MIC
Procedure: as §1, §2, §3, §4, §5, §6, §7, §8

[5] = test system: A. niger MMX 0624 ATCC 16888; experiment: MIC/MEC assay (CLSI microdilution); type: cell-based; conditions: Aspergillus niger, ATCC16888, 48 h; for minimal effective concentration: RPMI plus 0.002% Tween-80, read-out: MEC; for MIC: RPMI plus 0.002% Tween-80, read-out: MIC
Procedure: as §1, §2, §3, §4, §5, §6, §7, §8

[6] = test system: A. fumigatus MMX 5944; experiment: MIC/MEC assay (CLSI microdilution); type: cell-based; conditions: Aspergillus fumigatus, MMX5944, 48 h; for minimal effective concentration: RPMI plus 0.002% Tween-80; for MIC: RPMI plus 0.002% Tween-80, read-out: MIC
Procedure: as §1, §2, §3, §4, §5, §6, §7, §8

[7] = test system: C. parapsilosis MMX 2323 ATCC 22019; experiment: MIC assay (CLSI microdilution); type: cell-based, Candida parapsilosis; conditions: read-out: MIC
Procedure: as §1, §2, §3, §4, §5, §6, §7, §8

[8] = test system: C. neoformans MMX 0634 ATCC 90112; experiment: MIC assay (CLSI microdilution); type: cell-based; conditions: Cryptococcus neoformans, ATCC90112, RPMI plus 0.002% Tween-80; read-out: MIC
Procedure: as §1, §2, §3, §4, §5, §6, §7, §8

[9] = test system: C. albicans MMX 2000 ATCC 10231; experiment: MIC assay (CLSI microdilution); type: cell-based; conditions: Candida albicans, ATCC10231, RPMI plus 0.002% Tween-80; read-out: MIC
Procedure: as §1, §2, §3, §4, §5, §6, §7, §8

[10] = RPMI plus 0.002% Tween-80, read-out: MEC
[11] = RPMI plus 0.002% Tween-80, read-out: MIC
[12] = Without Tween-80, read-out: MEC
[13] = Without Tween-80, read-out: MIC
[14] = ATCC22019, RPMI plus 0.002% Tween-80

For `CC[C@H](C)[C@@H]1NC(=O)[C@@H]2CCCN2C(=O)[C@H](Cc2cccc(-c3cccc(F)c3)c2)N(C)C(=O)[C@H](Cc2ccccc2)NC(=O)[C@H](C(C)C)N(C)C(=O)[C@@H]([C@@H](C)CC)OC(=O)[C@H](C(C)(C)O)N(C)C(=O)[C@H](CC(C)C)NC(=O)[C@H](C(C)C)N(C)C1=O` [Compound 7] (cyclo(F[X32]PI[NMeV]L[NMeVal(β-OH)][Hmp(2R,3S)][NMeV])), the minimal effective concentration [1, 10] was 2 µg/mL, the MIC [1, 11] was over 64 µg/mL and the minimal effective concentration [1, 12] was 64 µg/mL. The MIC [1, 13] was over 64 µg/mL, the MIC [2] was over 64 µg/mL and the minimal effective concentration [2] was 1 µg/mL. The minimal effective concentration [3] was 0.5 µg/mL, the MIC [3] was over 64 µg/mL and the minimal effective concentration [4] was over 64 µg/mL. For the same compound, the MIC [4] was over 64 µg/mL, the minimal effective concentration [5] was 0.25 µg/mL and the MIC [5] was 0.25 µg/mL. For the same compound, the minimal effective concentration [6] was 0.5 µg/mL, the MIC [6] was over 64 µg/mL and the MIC [7, 14] was 0.12 µg/mL. For the same compound, the MIC ([7]; ATCC22019, Without Tween-80) was 1 µg/mL (≈ 0.836 µM), the MIC [8] was 0.12 µg/mL and the MIC [9] was 0.015 µg/mL.

Compound `CC[C@H](C)[C@@H]1NC(=O)[C@@H]2CCCN2C(=O)[C@H](Cc2cccc(-c3ccc(-n4c5ccccc5c5ccccc54)cc3)c2)N(C)C(=O)[C@H](Cc2ccccc2)NC(=O)[C@H](C(C)C)N(C)C(=O)[C@@H]([C@@H](C)CC)OC(=O)[C@H](C(C)(C)O)N(C)C(=O)[C@H](CC(C)C)NC(=O)[C@H](C(C)C)N(C)C1=O` [Compound 8] (cyclo(F[X35]PI[NMeV]L[NMeVal(β-OH)][Hmp(2R,3S)][NMeV])) has a minimal effective concentration [1, 10] of over 64 µg/mL, an MIC [1, 11] of over 64 µg/mL and a minimal effective concentration [1, 12] of over 64 µg/mL. It also gave an MIC [1, 13] of over 64 µg/mL, an MIC [2] of over 64 µg/mL and a minimal effective concentration [2] of over 64 µg/mL. For the same compound, the minimal effective concentration [3] was over 64 µg/mL, the MIC [3] was over 64 µg/mL and the minimal effective concentration [4] was over 64 µg/mL. It also gave an MIC [4] of over 64 µg/mL, a minimal effective concentration [5] of over 64 µg/mL and an MIC [5] of over 64 µg/mL. It also gave a minimal effective concentration [6] of over 64 µg/mL, an MIC [6] of over 64 µg/mL and an MIC [7, 14] of over 64 µg/mL. For the same compound, the MIC ([7]; ATCC22019, Without Tween-80) was over 64 µg/mL, the MIC [8] was over 64 µg/mL and the MIC [9] was over 64 µg/mL.

Work on `CC[C@H](C)[C@@H]1NC(=O)[C@@H]2CCCN2C(=O)[C@H](Cc2cccc(-c3cccc4ccccc34)c2)N(C)C(=O)[C@H](Cc2ccccc2)NC(=O)[C@H](C(C)C)N(C)C(=O)[C@@H]([C@@H](C)CC)OC(=O)[C@H](C(C)(C)O)N(C)C(=O)[C@H](CC(C)C)NC(=O)[C@H](C(C)C)N(C)C1=O` [Compound 9] (cyclo(F[X27]PI[NMeV]L[NMeVal(β-OH)][Hmp(2R,3S)][NMeV])) yielded a minimal effective concentration [1, 10] of over 64 µg/mL, an MIC [1, 11] of over 64 µg/mL and a minimal effective concentration [1, 12] of over 64 µg/mL. For the same compound, the MIC [1, 13] was over 64 µg/mL, the MIC [2] was over 64 µg/mL and the minimal effective concentration [2] was 1 µg/mL. The minimal effective concentration [3] was 1 µg/mL, the MIC [3] was over 64 µg/mL and the minimal effective concentration [4] was over 64 µg/mL. The MIC [4] was over 64 µg/mL, the minimal effective concentration [5] was 0.25 µg/mL and the MIC [5] was 0.25 µg/mL. The minimal effective concentration [6] was over 64 µg/mL, the MIC [6] was over 64 µg/mL and the MIC [7, 14] was 0.25 µg/mL. The MIC ([7]; ATCC22019, Without Tween-80) was 1 µg/mL (≈ 0.815 µM), the MIC [8] was 0.12 µg/mL and the MIC [9] was 0.12 µg/mL.
